Reference: patent US6414007B1, “Oxiranyl-triazoline thiones and their use as microbicides” (Bayer Aktiengesellschaft, priority 1997, dated 2002)

Experiments:
[1] = test system: Podosphaera leucotricha; experiment: Podosphaera test (apple)/protective; type: in vivo; conditions: protective, evaluation 10 days after inoculation
Method: Podosphaera test (apple)/protective Solvent: 47 parts by weight of acetone Emulsifier: 3 parts by weight of alkylaryl polyglycol ether To produce a suitable preparation of active compound, 1 part by weight of active compound is mixed with the stated amounts of solvent and emulsifier, and the concentrate is diluted with water to the desired concentration. To test for protective activity, young plants are sprayed with the preparation of active compound at the stated application rate. After the spray coating has dried on, the plants are inoculated with an aqueous spore suspension of the causative organism of apple mildew Podosphaera leucotricha. The plants are then placed in a greenhouse at approximately 23° C. and a relative atmospheric humidity of approximately 70%. Evaluation was carried out 10 days after the inoculation. 0% means an efficacy which corresponds to that of the control, whereas an efficacy of 100% means that no infections are observed.

[2] = test system: Erysiphe graminis f.sp. hordei; experiment: Erysiphe test (barley)/protective; type: in vivo; conditions: protective, application rate 125 g/ha, evaluation 7 days after inoculation
Method: (§1) Erysiphe test (barley)/protective Solvent: 25 parts by weight of N,N-dimethylacetamide Emulsifier: 0.6 parts by weight of alkylaryl polyglycol ether To produce a suitable preparation of active compound, 1 part by weight of active compound is mixed with the stated amounts of solvent and emulsifier, and the concentrate is diluted with water to the desired concentration. To test for protective activity, young plants are sprayed with the preparation of active compound at the stated application rate. After the spray coating has dried on, the plants are dusted with spores of Erysiphe graminis f.sp. hordei. The plants are placed in a greenhouse at a temperature of approximately 20° C. and a relative atmospheric humidity of approximately 80% to promote the development of mildew pustules. Evaluation is carried out 7 days after the inoculation. 0% means an efficacy which corresponds to that of the control, whereas an efficacy of 100% means that no infections are observed.

[3] = test system: Erysiphe graminis f.sp. hordei; experiment: Erysiphe test (barley)/curative; type: in vivo; conditions: curative (sprayed 48 hours after inoculation), application rate 250 g/ha, evaluation 7 days after inoculation
Method: as §1, with “(barley)/curative” for “(barley)/protective”, “curative” for “protective”, “young plants are dusted with spores of Erysiphe graminis f.sp. hordei. 48 hours after the inoculation, the” for “young”, “rate.” for “rate. After the spray coating has dried on, the plants are dusted with spores of Erysiphe graminis f.sp. hordei.”

[4] = test system: Erysiphe graminis f.sp. tritici; experiment: Erysiphe test (wheat)/protective; type: in vivo; conditions: protective, application rate 250 g/ha, evaluation 7 days after inoculation
Method: as §1, with “(wheat)/protective” for “(barley)/protective”, “tritici.” for “hordei.”

[5] = test system: Leptosphaeria nodorum; experiment: Leptosphaeria nodorum test (wheat)/protective; type: in vivo; conditions: protective, application rate 250 g/ha, evaluation 10 days after inoculation
Method: Leptosphaeria nodorum test (wheat)/protective Solvent: 25 parts by weight of N,N-dimethylacetamide Emulsifier: 0.6 parts by weight of alkylaryl polyglycol ether To produce a suitable preparation of active compound, 1 part by weight of active compound is mixed with the stated amounts of solvent and emulsifier, and the concentrate is diluted with water to the desired concentration. To test for protective activity, young plants are sprayed with the preparation of active compound at the stated application rate. After the spray coating has dried on, the plants are dusted with a spore suspension of Leptosphaeria nodorum. The plants remain in an incubation cabin at 20° C. and 100% relative atmospheric humidity for 48 hours. The plants are placed in a greenhouse at a temperature of approximately 15° C. and a relative atmospheric humidity of 80%. Evaluation is carried out 10 days after the inoculation. 0% means an efficacy which corresponds to that of the control, whereas an efficacy of 100% means that no infections are observed.

[6] = test system: Puccinia recondita; experiment: Puccinia test (wheat)/curative; type: in vivo; conditions: curative, application rate 125 g/ha, evaluation 10 days after inoculation
Method: Puccinia test (wheat)/curative Solvent: 25 parts by weight of N,N-dimethylacetamide Emulsifier: 0.6 parts by weight of alkylaryl polyglycol ether To produce a suitable preparation of active compound, 1 part by weight of active compound is mixed with the stated amounts of solvent and emulsifier, and the concentrate is diluted with water to the desired concentration. To test for curative activity, young plants are sprayed with a Conidia suspension of Puccinia recondita. The plants remain in an incubation cabin at 20° C. and 100% relative atmospheric humidity for 48 hours. The plants are then sprayed with the preparation of active compound at the stated application rate. The plants are placed in a greenhouse at a temperature of approximately 20° C. and a relative atmospheric humidity of approximately 80% to promote the development of rust pustules. Evaluation is carried out 10 days after the inoculation. 0% means an efficacy which corresponds to that of the control, whereas an efficacy of 100% means that no infections are observed.

[7] = test system: Puccinia recondita; experiment: Puccinia test (wheat)/protective; type: in vivo; conditions: protective, application rate 125 g/ha, evaluation 10 days after inoculation
Method: Puccinia test (wheat)/protective Solvent: 25 parts by weight of N,N-dimethylacetamide Emulsifier: 0.6 parts by weight of alkylaryl polyglycol ether To produce a suitable preparation of active compound, 1 part by weight of active compound is mixed with the stated amounts of solvent and emulsifier, and the concentrate is diluted with water to the desired concentration. To test for protective activity, young plants are sprayed with the preparation of active compound at the stated application rate. After the spray coating has dried on, the plants are sprayed with a […] of Puccinia recondita. The plants remain in an incubation cabin at 20° C. and 100% relative atmospheric humidity for 48 hours. The plants are placed in a greenhouse at a temperature of approximately 20° C. and a relative atmospheric humidity of approximately 80% to promote the development of rust pustules. Evaluation is carried out 10 days after the inoculation. 0% means an efficacy which corresponds to that of the control, whereas an efficacy of 100% means that no infections are observed.

[8] = test system: Coriolus versicolor; experiment: Inhibition test on giant colonies of Basidiomycetes; type: cell-based; conditions: Trametes versicolor; 6 ppm of active compound, malt extract peptone agar, 26° C., evaluation after 3 or 7 days; read-out: Inhibition in per cent of radial growth of giant colonies
Method: Inhibition test on giant colonies of Basidiomycetes Solvent: Dimethylsulphoxide To produce a suitable preparation of active compound, 0.2 parts by weight of active compound are admixed to 99.8 parts by weight of the abovementioned solvent. An agar, prepared by using malt extract peptone, is mixed in a liquid state with the preparation of active compound at the particular desired application rate. After solidification, the resultant nutrient medium is incubated at 26° C. with mycelium pieces punched out of colonies of Coriolus versicolor. Evaluation is carried out after 3 or 7 days' storage at 26° C. by measuring the growth of the mycelium and scoring the resulting inhibition in percent in comparison to the untreated control. 0% means an inhibition of growth which corresponds to that of the untreated control, while an inhibition of growth of 100% means that no growth of mycelium is observed.

Row | Structure (SMILES) | Efficacy in % ([1]; application rate 1 g/ha) [%] | Efficacy in % ([1]; application rate 10 g/ha) [%] | Efficacy in % [2] [%] | Efficacy in % [3] [%] | Efficacy in % [4] [%] | Efficacy in % [5] [%] | Efficacy in % [6] [%] | Efficacy in % [7] [%] | inhibition at 6 ppm [8] [%] | melting point [°C]
1 | Fc1ccc(C2(Cn3nc[nH]c3=S)OC2c2ccccc2Cl)cc1 (stereo not drawn) [A, 3-(2-chloro-phenyl)-2-(4-fluoro-phenyl)-2-[(4,5-dihydro-5-thiono-1,2,4-triazol-1-yl)-methyl]-oxirane, reference compound] | 57 | 92 |  |  |  |  |  |  |  | 
2 | CCOCCCNC(=O)n1cnn(CC2(c3ccc(F)cc3)OC2c2ccccc2Cl)c1=S (stereo not drawn) [Example 1] | 65 | 100 | 100 | 100 | 100 | 100 | 100 | 100 | 100 | 
3 | COCCNC(=O)n1cnn(CC2(c3ccc(F)cc3)OC2c2ccccc2Cl)c1=S (stereo not drawn) [Example 2] | 88 | 100 | 100 |  |  |  | 100 | 100 |  | 105 to 107
4 | CC(C)NC(=O)n1cnn(CC2(c3ccc(F)cc3)OC2c2ccccc2Cl)c1=S (stereo not drawn) [Example 3] | 80 | 100 | 100 |  | 100 |  | 100 |  | 100 | 104 to 106
